In patent US7951815B2, “Substituted 1,4,8-triazaspiro [4,5]decan-2-one compounds” (Gruenenthal GmbH, priority 2004, dated 2011):

Key:
[1] = biological target: T1, 5-HT transporter (Rattus norvegicus, UniProt P31652); experiment: Inhibition of 5-HT uptake in rat brain synaptosomes; format: biochemical; settings: Table III, rat, 1 μM; for inhibition at 1 µM: read-out: Uptake 5-HT, % inhibition
T1 construct: synaptosomes of rat brain areas are freshly isolated; from tissue; host or cells: rat brain synaptosomes (P2 fraction) from marrow and pons

[2] = system: NA transporter; experiment: Inhibition of noradrenaline uptake in rat brain synaptosomes; format: biochemical; settings: Table III

T1 sequence (P31652 whole entry): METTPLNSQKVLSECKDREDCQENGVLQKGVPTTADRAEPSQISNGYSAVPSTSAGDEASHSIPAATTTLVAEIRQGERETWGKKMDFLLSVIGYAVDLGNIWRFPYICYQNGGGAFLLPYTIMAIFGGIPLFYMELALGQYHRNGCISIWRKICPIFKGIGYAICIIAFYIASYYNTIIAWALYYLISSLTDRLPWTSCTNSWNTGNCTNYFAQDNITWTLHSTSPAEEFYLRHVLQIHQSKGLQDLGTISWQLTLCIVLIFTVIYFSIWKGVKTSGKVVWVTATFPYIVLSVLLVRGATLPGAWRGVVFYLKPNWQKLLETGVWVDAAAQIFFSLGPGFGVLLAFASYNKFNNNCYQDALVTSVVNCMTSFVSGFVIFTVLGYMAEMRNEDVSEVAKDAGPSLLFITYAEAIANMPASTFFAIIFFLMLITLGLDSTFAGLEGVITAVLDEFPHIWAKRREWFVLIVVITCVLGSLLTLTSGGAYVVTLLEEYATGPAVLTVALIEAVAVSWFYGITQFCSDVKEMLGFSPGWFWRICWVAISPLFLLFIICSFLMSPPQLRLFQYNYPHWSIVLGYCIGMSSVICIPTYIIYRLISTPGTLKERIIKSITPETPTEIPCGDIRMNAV

Structure (SMILES) | inhibition at 1 µM [1] [%] | Uptake (NA), rat, 10 μM, % inhibition [2] [%] | Uptake 5-HT, rat, 1 μM, % inhibition [1] [%]
CC(C)C1NC2(CCN(C(=O)c3c(F)cccc3Cl)CC2)NC1=O (stereo not shown) [Example 116, 8-(2-Chloro-6-fluorobenzoyl)-3-isopropyl-1,4,8-triazaspiro[4,5]decan-2-one] | 37 | 34 | –
C=CCN1C(=O)C(CCSC)NC12CCN(C(=O)C1CC1)CC2 (stereo not shown) [Example 281, 1-Allyl-8-cyclopropanecarbonyl-3-(2-methylsulfanylethyl)-1,4,8-triazaspiro[4,5]decan-2-one] | 56 | 30 | –
CCCC(C)C(=O)N1CCC2(CC1)NCC(=O)N2Cc1ccccc1C#N (stereo not shown) [Example 71, 2-[8-(2-Methylpentanoyl)-2-oxo-1,4,8-triazaspiro[4,5]dec-1-ylmethyl]benzonitrile] | 53 | 52 | –
CC(C)C1NC2(CCN(C(=O)c3c(F)c(F)c(F)c(F)c3F)CC2)NC1=O (stereo not shown) [Example 95, 3-Isopropyl-8-pentafluorobenzoyl-1,4,8-triazaspiro[4,5]decan-2-one] | – | 31 | –
CCOC(=O)C(C)(C)C(=O)N1CCC2(CC1)NC(CC(C)C)C(=O)N2CCCCOC(C)=O (stereo not shown) [Example 278, Ethyl 2-[1-(4-acetoxybutyl)-3-isobutyl-2-oxo-1,4,8-triazaspiro[4,5]dec-8-yl]-1,1-dimethyl-2-oxo-acetate] | – | 56 | 39
CSCCC1NC2(CCN(C(=O)c3cccnc3Oc3ccccc3)CC2)N(C)C1=O (stereo not shown) [Example 120, 1-Methyl-3-(2-methylsulfanylethyl)-8-(2-phenoxypyridin-3-carbonyl)-1,4,8-triazaspiro[4,5]decan-2-one] | – | 32 | –
COCC(=O)N1CCC2(CC1)NC(CCSC)C(=O)N2Cc1cccc(C#N)c1 (stereo not shown) [Example 112, 3-[8-(2-Methoxyacetyl)-3-(2-methylsulfanylethyl)-2-oxo-1,4,8-triazaspiro[4,5]dec-1-ylmethyl]benzonitrile] | 43 | 42 | –
CC(=O)OC(C(=O)N1CCC2(CC1)NC(Cc1ccccc1)C(=O)N2C)c1ccccc1 (stereo not shown) [Example 113, Ethyl 2-(3-benzyl-1-methyl-2-oxo-1,4,8-triazaspiro[4,5]dec-8-yl)-2-oxo-1-phenylacetate] | – | 46 | 35
Cc1cccc(C(=O)N2CCC3(CC2)NC(=O)C(Cc2ccccc2)N3)c1C (stereo not shown) [Example 108, 3-Benzyl-8-(2,3-dimethylbenzoyl)-1,4,8-triazaspiro[4,5]decan-2-one] | – | 37 | –
CN1C(=O)C(Cc2ccccc2)NC12CCN(C(=O)c1ccc([N+](=O)[O-])cc1)CC2 (stereo not shown) [Example 238, 3-Benzyl-1-methyl-8-(4-nitrobenzoyl)-1,4,8-triazaspiro[4,5]decan-2-one] | – | 31 | –
COC(=O)c1ccc(CN2C(=O)CNC23CCN(C(=O)c2ccnc(Cl)c2)CC3)cc1 [Example 272, Methyl 4-[8-(2-Chloropyridin-4-earbonyl)-2-oxo-1,4,8-triazaspiro[4,5]dec-1-ylmethyl]benzoate] | – | 31 | –
CC(C)CC1NC2(CCN(C(=O)c3sccc3Cl)CC2)NC1=O (stereo not shown) [Example 94, 8-(3-Chlorothiophene-2-carbonyl)-3-isobutyl-1,4,8-triazaspiro[4,5]decan-2-one] | – | 38 | –
N#Cc1cccc(CN2C(=O)CNC23CCN(C(=O)c2cc(C(F)(F)F)cc(C(F)(F)F)c2)CC3)c1 [Example 273, 3-[8-(3,5-Bis-trifluoromethylbenzoyl)-2-oxo-1,4,8-triazaspiro[4,5]dec-1-ylmethyl]benzonitrile] | 51 | 38 | –
C=CCCC(=O)N1CCC2(CC1)NC(Cc1ccccc1)C(=O)N2C (stereo not shown) [Example 139, 3-Benzyl-1-methyl-8-pent-4-enoyl-1,4,8-triazaspiro[4,5]decan-2-one] | – | 31 | –

More lines, main results first:

inhibition at 1 µM [1] [%] | Structure (SMILES) | Uptake (NA), rat, 10 μM, % inhibition [2] [%] | Uptake 5-HT, rat, 1 μM, % inhibition [1] [%]
43 | Cc1ccc(C(=O)N2CCC3(CC2)NC(Cc2ccccc2)C(=O)N3C)cc1F (stereo not shown) [Example 148, 3-Benzyl-8-(3-fluoro-4-methylbenzoyl)-1-methyl-1,4,8-triazaspiro[4,5]decan-2-one] | 32 | –
50 | CSCCC1NC2(CCN(C(=O)c3ccccn3)CC2)N(Cc2ccc(F)cc2)C1=O (stereo not shown) [Example 109, 1-(4-Fluorobenzyl)-3-(2-methylsulfanylethyl)-8-(pyridin-2-carbonyl)-1,4,8-triazaspiro[4,5]decan-2-one] | 32 | –
56 | CCSc1ncccc1C(=O)N1CCC2(CC1)NC(Cc1ccccc1)C(=O)N2C (stereo not shown) [Example 78, 3-Benzyl-8-(2-ethylsulfanylpyridin-3-carbonyl)-1-methyl-1,4,8-triazaspiro[4,5]decan-2-one] | 33 | –
50 | Cc1cccc(C(=O)N2CCC3(CC2)NCC(=O)N3CCOc2ccccc2)c1 [Example 86, 8-(3-Methylbenzoyl)-1-(2-phenoxyethyl)-1,4,8-triazaspiro[4,5]decan-2-one] | 38 | –
43 | N#Cc1ccccc1CN1C(=O)CNC12CCN(C(=O)C=Cc1ccccc1Cl)CC2 [Example 89, 2-{8-[3-(2-Chlorophenyl)acryloyl]-2-oxo-1,4,8-triazaspiro[4,5]dec-1-ylmethyl}benzonitrile] | 41 | –
34 | CC(C)C1NC2(CCN(C(=O)c3ccco3)CC2)N(Cc2ccccc2C#N)C1=O (stereo not shown) [Example 103, 2-[8-(Furan-2-carbonyl)-3-isopropyl-2-oxo-1,4,8-triazaspiro[4,5]dec-1-ylmethyl]benzonitrile] | 30 | –
30 | Cc1onc(-c2c(F)cccc2Cl)c1C(=O)N1CCC2(CC1)NC(=O)C(Cc1ccccc1)N2 (stereo not shown) [Example 115, 3-Benzyl-8-[3-(2-chloro-6-fluorophenyl)-5-methylisoxazole-4-carbonyl]-1,4,8-triazaspiro[4,5]decan-2-one] | 34 | –
57 | CC(C)C1NC2(CCN(C(=O)c3ccncc3)CC2)N(Cc2ccccc2)C1=O (stereo not shown) [Example 98, 1-Benzyl-3-isopropyl-8-(pyridin-4-carbonyl)-1,4,8-triazaspiro[4,5]decan-2-one] | 36 | –
51 | C#CCN1C(=O)C(Cc2ccccc2)NC12CCN(C(=O)c1c(F)cccc1Cl)CC2 (stereo not shown) [Example 210, 3-Benzyl-8-(2-chloro-6-fluorobenzoyl)-1-prop-2-ynyl-1,4,8-triazaspiro[4,5]decan-2-one] | 31 | –
34 | Cc1nnsc1C(=O)N1CCC2(CC1)NCC(=O)N2Cc1ccccc1 [Example 88, 1-Benzyl-8-(4-methyl[1,2,3]thiadiazole-5-carbonyl)-1,4,8-triazaspiro[4,5]decan-2-one] | 32 | –
95 | CCOC(=O)CN1C(=O)C(Cc2ccccc2)NC12CCN(C(=O)c1ccc(S(N)(=O)=O)cc1)CC2 (stereo not shown) [Example 276, Ethyl [3-benzyl-2-oxo-8-(4-sulfamoylbenzoyl)-1,4,8-triazaspiro[4,5]dec-1-yl]acetate] | 46 | –
